Measured values reported in patent US7101853B2 (Amylin Pharmaceuticals, Inc., priority 1997, dated 2006).
pIC50: −log10 of the molar value. Like-named read-outs stand apart in the source and are kept apart here. Where no end group is shown, it is not given here.

Columns and labels:
[1] = tested on: treated test animals; experiment: Amylin activity in vivo in treated test animals
[2] = tested on: ethanol- or indomethacin-induced gastritis in rats; conditions: cited from earlier work
[3] = in rats, in rabbits, and in humans with Paget's disease; cited from earlier work
[4] = target: amylin receptor (membrane-bound, rat basal forebrain membranes containing the nucleus accumbens and surrounding regions) (rat); experiment: competition with 125I-rat amylin on rat basal forebrain membranes
[5] = tested on: Harlan Sprague Dawley (non-diabetic) rats; experiment: Phenol red gastric emptying assay, normal rats; type: in vivo, rat; conditions: 1 μg s.c. 5 minutes before gavage, normal HSD rats
From the text: (§1) Briefly, conscious rats received by gavage. […] Twenty minutes after gavage, rats were anesthetized using 5% halothane, the stomach exposed and clamped at the pyloric and lower esophageal sphincters using artery forceps, removed and opened into an alkaline solution which was made up to a fixed volume. Stomach content was derived from the intensity of the phenol red in the alkaline solution, measured by absorbance at a wavelength of 560 nm. In most experiments, the stomach was clear. In other experiments, particulate gastric contents were centrifuged to clear the solution for absorbance measurements. Where the diluted gastric contents remained turbid, the spectroscopic absorbance due to phenol red was derived as the difference between that present in alkaline vs acetified diluent. […] The quantity of phenol red that could be recovered from the upper gastrointestinal tact within […] of gavage was 89±4%; dye which appeared to bind irrecoverably to the gut luminal surface may have accounted for the balance. To compensate for this small loss, percent of stomach contents remaining after 20 minutes were expressed as a fraction of the gastric contents recovered from control rats sacrificed immediately after gavage in the same experiment. Percent gastric emptying contents remaining=(absorbance at 20 min)/(absorbance at 0 min). […]

[6] = tested on: ethanol gavaged rat; experiment: Gastroprotection: ethanol-induced mucosal damage in the ethanol gavaged rat; type: in vivo
From the text: The gastroprotective properties of amylin in an animal model for gastritis—the ethanol gavaged rat—are described in this example.
Mucosal damage was scored between 0 (no damage) and 5 (100% of stomach covered by hyperemia and ulceration) by investigators blinded to the treatment. […] This prediction was obtained by applying the published relationship between injected subcutaneous dose and peak plasma concentration in rats. Young, A. A. et al., Drug Devel. Res. 37:231-48 (1996). […] Mimicking this physiological effect is unlikely to result in unwanted side effects, as is often the case with administration of unphysiological xenobiotics.

[7] = tested on: diabetic BB rats; experiment: Phenol red gastric emptying assay, diabetic rats; type: in vivo, rat; conditions: 10 μg s.c. 5 minutes before gavage
From the text: as §1

[8] = tested on: Harlan Sprague Dawley rats; experiment: Tritiated glucose gastric emptying assay; type: in vivo, rat
Protocol: Conscious, non-fasted, Harlan Sprague Dawley rats were restrained by the tail, the tip of which was anesthetized using 2% lidocaine. Tritium in plasma separated from tail blood collected 0, 15, 30, 60, 90 and 120 minutes after gavage was detected in a beta counter.

In the case of `CC[C@H](C)[C@H](NC(=O)[C@@H]1CCCN1C(=O)CNC(=O)[C@H](Cc1ccccc1)NC(=O)[C@H](CC(N)=O)NC(=O)[C@H](CC(N)=O)NC(=O)[C@H](CO)NC(=O)[C@H](CO)NC(=O)[C@H](Cc1c[nH]cn1)NC(=O)[C@@H](NC(=O)[C@H](CC(C)C)NC(=O)[C@H](Cc1ccccc1)NC(=O)[C@H](CC(N)=O)NC(=O)[C@H](C)NC(=O)[C@H](CC(C)C)NC(=O)[C@H](CCCNC(=N)N)NC(=O)[C@H](CCC(N)=O)NC(=O)[C@@H](NC(=O)[C@H](C)NC(=O)[C@@H]1CSSC[C@H](NC(=O)[C@@H](N)CCCCN)C(=O)N[C@@H](CC(N)=O)C(=O)N[C@@H]([C@@H](C)O)C(=O)N[C@@H](C)C(=O)N[C@@H]([C@@H](C)O)C(=O)N1)[C@@H](C)O)C(C)C)C(=O)N[C@@H](CC(C)C)C(=O)N1CCC[C@H]1C(=O)N1CCC[C@H]1C(=O)N[C@H](C(=O)N[C@@H](CC(N)=O)C(=O)N[C@H](C(=O)NCC(=O)N[C@@H](CO)C(=O)N[C@@H](CC(N)=O)C(=O)N[C@H](C(=O)N[C@@H](Cc1ccc(O)cc1)C(N)=O)[C@@H](C)O)C(C)C)[C@@H](C)O` [^25,28,29Pro-h-Amylin], the “Amylin activity in vivo” value [1] was “show amylin activity in vivo”.

For “amylin (KCNTATCATQRLANFLVHSSNNFGAILSSTNVGSNTY; not fully specified (C-terminus, bridges); cysteine pairing not given here; UniProt P10997 34-70, looked up) [amylin as named in the cited literature, species form not specified at the place]”, the “Effect on ethanol- or indomethacin-induced gastritis” value ([2]; intracerebroventricular injections) is given as “did have an effect”, the “Effect on ethanol- or indomethacin-induced gastritis” value ([2]; subcutaneous injections) is given as “no effect” and the “Lowering of plasma calcium” value [3] is given as “up to 20%”.

For “des-^1Lys-h-amylin (CNTATCATQRLANFLVHSSNNFGAILSSTNVGSNTY)”, the “Amylin activity in vivo” value [1] was “show amylin activity in vivo”.

In the case of “purified human amylin (from UniProt P10997 34-70) (peptide)”, the pIC50 [4] was 10.30.

For rat amylin, the “Suppression of gastric emptying” value [5] was “complete”, the “Mucosal damage, percent of scores in the saline-treated controls” value (from here on “Mucosal damage, percent of scores”) ([6]; 0.001 μg s.c. 5 min before gavage of 1 ml absolute ethanol) was 95.3±15.2% and the “Mucosal damage, percent of scores” value ([6]; 0.01 μg s.c. 5 min before gavage of 1 ml absolute ethanol) was 76.6±13.8%. The “Mucosal damage, percent of scores” value ([6]; 0.1 μg s.c. 5 min before gavage of 1 ml absolute ethanol) was 70.1±10.7%, the “Mucosal damage, percent of scores” value ([6]; 0.3 μg s.c. 5 min before gavage of 1 ml absolute ethanol) was 33.9±7.7% and the “Mucosal damage, percent of scores” value ([6]; 1 μg s.c. 5 min before gavage of 1 ml absolute ethanol) was 59.6±5.8%. The “Mucosal damage, percent of scores” value ([6]; 3 μg s.c. 5 min before gavage of 1 ml absolute ethanol) was 35.6±11.5%, the “Mucosal damage, percent of scores” value ([6]; 10 μg s.c. 5 min before gavage of 1 ml absolute ethanol) was 32.9±8.3% and the “Predicted increase in circulating amylin concentrations at the 50% gastroprotective dose” value ([6]; […] s.c., from published relationship between s.c. dose and peak plasma concentration in rats) was 1.8 ± 0.4 pM. For the same compound, the “Reduction of the injury score” value ([6]; as observed with the 10 μg dose) was “up to 67%”, the “ED50 for the gastroprotective effect” value ([6]; s.c., ±0.4 log units) was 0.036 μg/rat and the “Suppression of gastric emptying” value [7] was “complete”. For the same compound, the “Effect on absorption of the label (plasma tritium)” value ([8]; s.c. 0.1-100 μg 1 minute before gavage) was “dose-dependently slowed and/or delayed the absorption of the label” and the “ED50 derived from the logistic fit (plasma tritium AUC over 30 minutes vs dose)” value ([8]; s.c. 1 minute before gavage of tritiated glucose) was 0.35 μg.
